In US12570984B2, “DNA aptamer specifically binding to glutathione and use thereof” (Nexmos Co., LTD, priority 2020, dated 2026):

What was measured:
tyrosinase [1] = biological target: T1, tyrosinase (Homo sapiens, UniProt P14679); assay: Whitening efficacy test, in vitro cell-based tyrosinase activity (MNT-1 cells); conditions: 72 hours, final 100 μM GSH, 1 μM Apt G, 0.01% arbutin, L-DOPA, absorbance 475 nm
T1 sequence (P14679 19-529): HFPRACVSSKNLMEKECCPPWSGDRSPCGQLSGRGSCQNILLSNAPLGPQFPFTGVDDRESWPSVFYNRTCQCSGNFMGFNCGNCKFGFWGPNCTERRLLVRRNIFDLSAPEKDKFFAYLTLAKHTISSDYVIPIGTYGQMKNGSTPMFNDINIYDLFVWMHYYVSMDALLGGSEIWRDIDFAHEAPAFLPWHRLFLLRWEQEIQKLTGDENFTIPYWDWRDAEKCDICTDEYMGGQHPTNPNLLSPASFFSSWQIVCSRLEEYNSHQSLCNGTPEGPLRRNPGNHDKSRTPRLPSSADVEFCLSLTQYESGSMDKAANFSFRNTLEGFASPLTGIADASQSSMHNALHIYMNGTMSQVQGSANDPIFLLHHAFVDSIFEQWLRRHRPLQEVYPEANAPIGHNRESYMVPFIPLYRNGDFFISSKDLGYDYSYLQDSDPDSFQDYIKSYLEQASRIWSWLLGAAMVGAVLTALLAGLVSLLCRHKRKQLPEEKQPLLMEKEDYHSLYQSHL
Procedure: The final concentration of each component in this experiment was 100 μM GSH, 1 μM Apt G, 0.01% arbutin,
100 μM GSH and 1 μM of the prepared aptamer (molar concentration of 100:1) were added to the media and reacted at room temperature for 30 minutes.
MNT-1 cells were seeded on a 6-well plate and incubated for 24 hours at 37° C., 5% CO2 incubator.
After treating each of the prepared samples, the samples were again incubated at 37° C. and 5% CO2 incubator for 72 hours.
After incubation, ice-cold lysis buffer (RIPA buf.+ protease inhibitor) was used to remove the cells from the plate, and the removed cells were transferred to an EP-tube and centrifuged to remove only the supernatant.
Lysate, L-DOPA, potassium phosphate buffer (pH6.5) was added to a 96 well plate and mixed (each test group used the same amount of protein through protein quantification).
After incubation for 1 hour at 37° C., 5% CO2 incubator, absorbance was measured at 475 nm using a plate reader.

tyrosinase [2] = conditions: final 20 μM GSH; 37° C. 10 minutes; absorbance 490 nm; N=5
Procedure: The final concentrations of each component in this experiment were 20 μM GSH, 0.2 μM Apt G, and 0.01% arbutin.
300 μM GSH and 3 μM of the prepared aptamer (molar concentration of 100:1) were dissolved in tertiary distilled water and reacted at room temperature for 30 minutes.
In a 96 well plate, 200 μL of 0.1 M potassium phosphate buffer (pH6.5), 20 μL of sample, 20 μL of 2 KU/mL tyrosinase, and 60 μL of 1.0 mM tyrosine were sequentially added and reacted at 37° C. for 10 minutes.
After the reaction, absorbance was measured at 490 nm using a plate reader.

[3] = Antioxidant efficacy test, DTNB assay (sulfhydryl group determination) of GSH stored at 37° C.; conditions: day 16, storage at 37° C.; final 125 μM GSH, 1.25 μM aptamin G; n=5
Procedure: In this experiment, the final concentration of each component was 125 μM GSH and 1.25 μM aptamin G.
The prepared aptamer (100:1) of the prepared aptamer (100:1) of 250 μM GSH and 2.5 μM was dissolved in the 3th distilled water for 30 minutes at room temperature.
The above GSH-Aptamin G complex was stored for a certain period of time under severe conditions (37° C.), and samples were obtained every 4 days and measured for 16 days.
Just before the sample measurement, 10 mm DTNB (4 mg/ml, buffer: 0.1 M potassium Phosphate buffer, pH 8.0) was prepared to mix the sample (50 μL) of DTNB solution and shaking incubation.
After the reaction, the UV Absorbance value was measured at 412 nm and REF wavelength 605 nm using the Plate Reader.

| inhibition of the activity of tyrosinase (tyrosinase [2]) | amount of GSH remaining unoxidized [3] | SMILES | inhibition of tyrosinase activity (cell test) (tyrosinase [1]) |
| --- | --- | --- | --- |
| about 75% | about 60% | N[C@@H](CCC(=O)N[C@@H](CS)C(=O)NCC(=O)O)C(=O)O [GSH, Glutathione] | tendency not to inhibit the activity of tyrosinase |
|  |  | OC[C@H]1O[C@@H](Oc2ccc(O)cc2)[C@H](O)[C@@H](O)[C@@H]1O [Arbutin] | about 25% |
